The values that follow come from paper PMC7286885, “An iron (II) dependent oxygenase performs the last missing step of plant lysine catabolism” (Nature Communications, 2020).

One may read the Km as the substrate concentration at which the rate is half of its maximum.

The target in series [1] is T1, YdcJ (Escherichia coli, UniProt P76097).
T1 construct: recombinant in E. coli BL21 (DE3), Ni-NTA purified
T1 sequence (P76097 1-447): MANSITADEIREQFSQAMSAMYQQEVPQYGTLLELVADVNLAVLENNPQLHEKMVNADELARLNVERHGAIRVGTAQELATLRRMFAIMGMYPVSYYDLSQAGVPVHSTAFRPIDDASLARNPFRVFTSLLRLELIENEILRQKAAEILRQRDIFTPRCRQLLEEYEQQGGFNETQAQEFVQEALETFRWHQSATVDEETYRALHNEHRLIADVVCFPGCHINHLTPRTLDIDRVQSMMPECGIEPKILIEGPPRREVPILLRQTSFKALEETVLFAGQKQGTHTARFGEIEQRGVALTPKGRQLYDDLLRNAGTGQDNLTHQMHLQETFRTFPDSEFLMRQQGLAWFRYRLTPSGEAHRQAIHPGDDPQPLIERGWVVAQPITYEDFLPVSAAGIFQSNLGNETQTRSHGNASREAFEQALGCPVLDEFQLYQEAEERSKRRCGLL
The experiment in a line: in vitro assay, product by high resolution LC-MS. The note with it: conversion to 2-hydroxyglutarate. The series is classed as biochemical.

In series [2] the target is T2, FLO7 (Oryza sativa, UniProt Q337M4).
T2 construct: E. coli codon-optimized gene, expressed in E. coli BL21 (DE3), Ni-NTA purified
T2 sequence (Q337M4 48-364 limits assumed): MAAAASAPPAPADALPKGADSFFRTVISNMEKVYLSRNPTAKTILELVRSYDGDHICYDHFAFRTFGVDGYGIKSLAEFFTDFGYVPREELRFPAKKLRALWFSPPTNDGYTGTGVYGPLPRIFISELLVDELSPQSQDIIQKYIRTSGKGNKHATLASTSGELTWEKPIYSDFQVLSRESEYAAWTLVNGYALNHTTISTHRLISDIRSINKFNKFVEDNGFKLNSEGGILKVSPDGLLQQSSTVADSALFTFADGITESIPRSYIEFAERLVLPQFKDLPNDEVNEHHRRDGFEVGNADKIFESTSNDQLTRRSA
The experiment in a line: X-ray crystal structure at […] Å, soaked crystals. Format: binding. To be noted: active-site Ni(II); Arg64 binds the substrate.

In series [3] the target is T3, AT1G07040 (Arabidopsis thaliana, UniProt Q9LMJ7).
T3 construct: amplified from Arabidopsis cDNA, expressed in E. coli BL21 (DE3), Ni-NTA purified
T3 sequence (Q9LMJ7 51-371): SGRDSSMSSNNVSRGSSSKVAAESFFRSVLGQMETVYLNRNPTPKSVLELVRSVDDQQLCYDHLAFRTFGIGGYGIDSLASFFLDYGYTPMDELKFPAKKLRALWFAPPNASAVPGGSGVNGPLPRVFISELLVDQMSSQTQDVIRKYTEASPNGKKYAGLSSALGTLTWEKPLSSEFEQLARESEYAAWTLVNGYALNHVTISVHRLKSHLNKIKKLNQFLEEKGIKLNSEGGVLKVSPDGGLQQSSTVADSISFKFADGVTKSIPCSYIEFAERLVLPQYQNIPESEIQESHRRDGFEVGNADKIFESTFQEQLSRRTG
The experiment in a line: in vitro assay, product by high resolution LC-MS. The series is classed as biochemical. The note with it: conversion to 2-hydroxyglutarate; N-terminal localization peptide removed.

Series [4] deals with T4, HglS (Pseudomonas putida, UniProt Q88CC1).
T4 construct: recombinant in E. coli BL21 (DE3), Ni-NTA purified; crystals contain mainly active-site Ni(II); activity with Fe(II)
T4 sequence (Q88CC1 1-464): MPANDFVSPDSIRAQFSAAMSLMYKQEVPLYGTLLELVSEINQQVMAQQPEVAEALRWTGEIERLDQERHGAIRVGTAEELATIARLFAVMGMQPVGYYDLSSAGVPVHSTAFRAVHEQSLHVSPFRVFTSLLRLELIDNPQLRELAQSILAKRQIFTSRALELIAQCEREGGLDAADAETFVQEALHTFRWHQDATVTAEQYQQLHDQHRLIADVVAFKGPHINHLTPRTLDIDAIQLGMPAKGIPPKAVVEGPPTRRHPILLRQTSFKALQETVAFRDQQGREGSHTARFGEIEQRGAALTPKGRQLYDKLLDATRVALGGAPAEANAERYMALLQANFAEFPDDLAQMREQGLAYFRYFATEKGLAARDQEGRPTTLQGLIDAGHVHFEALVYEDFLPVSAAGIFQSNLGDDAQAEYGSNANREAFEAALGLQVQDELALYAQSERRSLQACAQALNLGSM
The experiment in a line: X-ray crystal structure, soaked crystals. The series is classed as binding. To be noted: active-site Ni(II) (noncatalytic); 2OA carboxylate and alpha-keto group coordinate the metal, Arg74 salt bridge.

Substrate in series [5]: O=C(O)CCCC(=O)C(=O)O
The experiment in a line: steady-state kinetics of purified enzyme. Format: biochemical, Oryza sativa. To be noted: Fe(II)- and O2-dependent; N-terminal localization peptide removed.

Substrate in series [6]: O=C(O)CCCC(=O)C(=O)O
The experiment in a line: initial rates of O2 consumption, Clark-type electrode. Format: biochemical, Pseudomonas putida. To be noted: 10 µM FeSO4, 100 mM Tris pH 7.0, room temperature, 240 µM O2, 10-200 µM 2OA, 100 nM enzyme. An excerpt:
initial rates of O2 consumption, Clark-type electrode on HglS | kinetic parameters determined by monitoring oxygen consumption were similar to those we previously reported

With `O=C(O)CCCC(=O)C(=O)O` [2OA, 2-oxoadipate], the “in vitro assay, product by high resolution LC-MS” value in series [1] is “the E. coli homolog YdcJ and the plant homologs AT1G07040 and FLO7 catalyzed the conversion”; in series [3], “plant homologs AT1G07040 and FLO7 catalyzed the conversion of 2OA”. Besides, in series [2], the “X-ray crystal structure at 1.85 Å, soaked crystals” value is “soaked with 2OA, producing diffraction data used to solve the substrate-bound crystal structure”. Further, the “X-ray crystal structure, soaked crystals” value in series [4] was “soaked HglS crystals with 2OA and solved the structure of the resulting complex”.

B1: FLO7 (Oryza sativa Japonica Group) (protein)
chain: T2 sequence (Q337M4 48-364 limits assumed)
notes: E. coli codon-optimized gene, expressed in E. coli BL21 (DE3), Ni-NTA purified
B1: the Michaelis-Menten constant (Km) in series [5] came out at 550 µM.

B2: HglS (Pseudomonas putida KT2440) (protein)
chain: T4 sequence (Q88CC1 1-464)
notes: recombinant in E. coli BL21 (DE3), Ni-NTA purified; crystals contain mainly active-site Ni(II); activity with Fe(II)
In the case of B2, in series [6], the Michaelis-Menten constant (Km) was found to be 10 µM.
